Reference: paper PMC9758846, “Dinuclear and mononuclear metal(II) polypyridyl complexes against drug-sensitive and drug-resistant Plasmodium falciparum and their mode of action” (Malaria Journal, 2022)

How the values were obtained:
Pf3D7 = assay: Intracellular ROS level using DCFH-DA; format: cell-based, Plasmodium falciparum
Experimental: (§1) After incubation, packed cells were washed with phosphate buffer saline (PBS) solution. […] The data was expressed as fold change between amount of ROS produced by treated P. falciparum against untreated P. falciparum. Normalization was done with the percentage of parasite viability obtained at each condition. Hydrogen peroxide was used as positive control.

Pf5202 = assay: Intracellular ROS level using DCFH-DA; format: cell-based, Plasmodium falciparum
Experimental: as §1

[1] = system: B+ blood red blood cells (RBC); assay: In vitro haemolytic assay; format: cell-based, human; conditions: up to 25 µM; 72 h
Experimental: Fresh B+ blood was washed with RPMI1640 medium containing of 30 µg/mL gentamicin (Gibco) and centrifuged at 1000 xg for 10 min three times. The percentage of haemolysis was determined spectroscopically using 5% haematocrit containing test compound at increasing concentration and incubated for 72 h at 37 °C [19, 20]. Untreated blood acted as negative control while blood treated with sterile distilled water acted as positive control (for 100% haemolysis).

[2] = PNDA assay of •OH radicals from reaction with H2O2; conditions: for Concentration of •OH radical: 30 µM compound with excess H2O2
Experimental: A previously reported spectrometric assay using PNDA was used to quantify the amount of reactive oxygen species (ROS), viz. •OH radicals, produced by the reaction of metal(II) complexes with hydrogen peroxide in borate buffer at pH 7.5 [24–26]. The percentage of PNDA bleaching and the concentration of •OH produced were determined.

[3] = Solution stability by molar conductivity and visible absorptivity; format: physicochemical; conditions: 24, 48 and 72 h; room temperature
Experimental: Series of 10 mM stock solutions were prepared by dissolving the compounds in their respective solvents: phen and 4,4′-bipy in 95% ethanol; Cu(NO3)2·3H2O, Zn(NO3)2·6H2O, (1) and (2) in double distilled water; (3) and (4) in DMSO. All the stock solutions were further diluted with double distilled water to obtain 10 mL of 30 µM, 1 mM and 5 mM for their respective studies, viz. 30 µM for ultraviolet spectral studies, 1 mM for conductivity measurement and 5 mM for visible spectral studies. For the water-DMSO solutions of both complexes (3) and (4), the 30 µM, 1 mM and 5 mM solutions have […], 10% DMSO and 50% DMSO respectively. The absorbance at λmax and conductance were of the aqueous solutions were measured at 0, 24, 48 and 72 h. The molar absorptivity and molar conductivity of the metal(II) complex solutions and their precursors were then calculated.

## O.O.O=[N+]([O-])[O-].O=[N+]([O-])[O-].[Zn+2].c1cnc2c(c1)ccc1cccnc12.c1cnc2c(c1)ccc1cccnc12 [Complex 2, [Zn(phen)2](NO3)2·2H2O]
Pf3D7; 24 h, 0.2 µM
  fold change in ROS: 0.07 ± 0.08 fold
Pf3D7; 24 h, 1.0 µM
  fold change in ROS: 0.39 ± 0.19 fold
Pf3D7; 24 h, 5.0 µM
  fold change in ROS: 0.45 ± 0.10 fold
Pf3D7; 24 h, 25.0 µM
  fold change in ROS: 2.61 ± 0.12 fold
Pf3D7; 48 h, 0.2 µM
  fold change in ROS: 1.9 ± 0.38 fold
Pf3D7; 48 h, 1.0 µM
  fold change in ROS: 2.13 ± 0.21 fold
Pf3D7; 48 h, 5.0 µM
  fold change in ROS: 2.95 ± 0.18 fold
Pf3D7; 48 h, 25.0 µM
  fold change in ROS: 2.48 ± 0.26 fold
Pf3D7; 72 h, 25.0 µM
  fold change in ROS: 0.70 ± 0.05 fold
Pf5202; 24 h, 0.2 µM
  fold change in ROS: 1.07 ± 0.05 fold
Pf5202; 24 h, 1.0 µM
  fold change in ROS: 1.10 ± 0.09 fold
Pf5202; 24 h, 5.0 µM
  fold change in ROS: 1.00 ± 0.02 fold
Pf5202; 24 h, 25.0 µM
  fold change in ROS: 1.04 ± 0.06 fold
Pf5202; 72 h, 0.2 µM
  fold change in ROS: 0.00 ± 0.03 fold
Pf5202; 72 h, 1.0 µM
  fold change in ROS: 0.34 ± 0.04 fold
Pf5202; 72 h, 5.0 µM
  fold change in ROS: 0.16 ± 0.04 fold
[1]
  Haemolysis on B+ blood (in words): no haemolysis
[2]; 2 h
  Concentration of •OH radical: 0.01 ± 0.08 µM
[2]; 4 h
  Concentration of •OH radical: 0.08 ± 0.03 µM
[2]; 24 h
  Concentration of •OH radical: 0.20 ± 0.16 µM
[2]; 48 h
  Concentration of •OH radical: 0.21 ± 0.05 µM
[2]; 72 h
  Concentration of •OH radical: 0.28 ± 0.08 µM
[2]; equimolar test compound with excess H2O2
  Generation of ·OH radicals (in words): did not generate any ·OH radicals
[3]
  Stability of aqueous solution (molar conductivity; for (1) also visible molar absorptivity): remains practically unchanged
